ChEMBL document CHEMBL1201862, “PubChem BioAssay data set” (2004)
Active and inactive are the calls of the source.

Columns and labels:
[1] = Counterscreen for inhibitors of Trypanosoma brucei methionyl tRNA synthetase (MetRS): Luminescence-based cell-based high throughput dose response assay to identify compounds that are cytotoxic to Jurkat human T lymphocyte cells.; type: functional
[2] = molecular target: T1, Methionyl-tRNA synthetase, putative (Trypanosoma brucei brucei, UniProt Q38C91); type: functional, Trypanosoma brucei brucei strain 927/4 GUTat10.1
T1 sequence (Q38C91 whole entry): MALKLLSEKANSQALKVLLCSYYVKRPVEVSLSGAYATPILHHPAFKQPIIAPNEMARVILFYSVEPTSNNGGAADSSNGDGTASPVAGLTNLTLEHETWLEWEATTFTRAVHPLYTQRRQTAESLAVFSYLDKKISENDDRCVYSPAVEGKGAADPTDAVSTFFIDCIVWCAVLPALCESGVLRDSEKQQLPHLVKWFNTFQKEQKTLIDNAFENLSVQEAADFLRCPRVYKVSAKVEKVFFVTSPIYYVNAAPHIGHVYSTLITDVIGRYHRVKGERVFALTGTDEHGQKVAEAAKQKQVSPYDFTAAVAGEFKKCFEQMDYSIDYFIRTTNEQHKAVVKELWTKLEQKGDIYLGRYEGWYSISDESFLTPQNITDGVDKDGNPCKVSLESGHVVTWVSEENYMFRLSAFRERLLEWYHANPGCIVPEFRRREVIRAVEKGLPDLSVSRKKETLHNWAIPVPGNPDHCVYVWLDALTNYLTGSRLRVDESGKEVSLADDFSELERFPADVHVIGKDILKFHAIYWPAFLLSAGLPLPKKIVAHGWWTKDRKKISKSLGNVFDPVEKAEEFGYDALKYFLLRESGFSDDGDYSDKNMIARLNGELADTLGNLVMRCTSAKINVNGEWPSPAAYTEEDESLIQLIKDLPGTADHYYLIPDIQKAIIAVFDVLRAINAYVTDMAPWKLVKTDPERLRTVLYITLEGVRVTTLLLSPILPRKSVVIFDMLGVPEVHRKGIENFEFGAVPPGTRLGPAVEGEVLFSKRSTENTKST

[3] = molecular target: T1, Methionyl-tRNA synthetase, putative; type: functional, Trypanosoma brucei brucei strain 927/4 GUTat10.1; remark: listed apart in the source
[4] = microbe, parasite or virus in culture; type: functional; details: Mycobacterium tuberculosis
HeLa = assay: HeLa cell cytotoxicity, dose response, cytotoxicity control for MITF activator project, CellTiter-Glo luminescence, cherry-pick samples (AID 540259); type: functional, cell-based; details: Homo sapiens
[5] = molecular target: Beta-2 adrenergic receptor (Homo sapiens, UniProt P07550); assay: beta2AR agonists driving receptor internalization, dose response, cell-based, FAP fluorogen, flow cytometry, cherry pick 1 (AID 588763); type: functional
Vero [6] = assay: host cell cytotoxicity of antiviral hits, dose response, cytotoxicity control for West Nile virus antiviral project, secondary assay (AID 1650); type: functional; details: Chlorocebus sabaeus
[7] = molecular target: FAD-linked sulfhydryl oxidase ALR (Homo sapiens, UniProt P55789); assay: inhibitors of human ALR sulfhydryl oxidase, dose response, biochemical, H2O2 detection, luminescence, cherry-pick (AID 493248)
[8] = molecular target: T2, Carboxy-terminal domain RNA polymerase II polypeptide A small phosphatase 1 (Homo sapiens, UniProt Q9GZU7); assay: inhibitors of CTDSP1, concentration-response testing, biochemical assay, absorbance-based, actives from ultra-high-throughput screening (AID 540297); type: functional
T2 sequence (Q9GZU7 whole entry): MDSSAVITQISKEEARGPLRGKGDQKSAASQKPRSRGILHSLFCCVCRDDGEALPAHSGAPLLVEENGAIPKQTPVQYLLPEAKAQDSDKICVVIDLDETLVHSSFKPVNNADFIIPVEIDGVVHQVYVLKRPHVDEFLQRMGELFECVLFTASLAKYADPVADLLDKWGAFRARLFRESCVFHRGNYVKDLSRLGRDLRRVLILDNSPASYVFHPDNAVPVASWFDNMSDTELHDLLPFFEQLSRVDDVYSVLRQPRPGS

[9] = LGR2 antagonists, dose response, cell-based, HEK293, CRE-luciferase reporter, cherry pick, set 2 (AID 743343); type: functional;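 note: transfected cells were stimulated with diluted bursicon conditioned medium after compound addition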
[10] = A549 cell cytotoxicity, dose response, cytotoxicity control, plate reader, cherry-pick, antagonist series (AID 743412); type: functional, cell-based
[11] = HepG2 cell cytotoxicity, dose response, cytotoxicity control, plate reader, cherry-pick, antagonist series (AID 743416); type: functional, cell-based
[12] = MC4R antagonists, dose response, counter-screen for LGR2 antagonist project, cell-based, plate reader, cherry pick (AID 743444); type: functional;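 note: transfected HEK 293 cells stimulated with alpha-MSH peptide; potency of inhibitors of the alpha-MSH evoked signal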
[13] = HEK293 cell cytotoxicity, dose response, cytotoxicity control, plate reader, cherry-picked samples (AID 743446); type: functional, cell-based
[14] = molecular target: Eukaryotic translation initiation factor 4E (Mus musculus, UniProt P63073); assay: eIF4E–eIF4G protein interaction inhibitors, dose response, biochemical, TR-FRET (AID 855); type: functional;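 note: potency for disrupting eIF4E binding to eIF4GI seen as loss of FRET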
Vero [15] = assay: cells; type: functional; details: Chlorocebus sabaeus
[16] = HEp-2 cell cytotoxicity, dose response, cytotoxicity control for RSV inhibitor project, HTS (AID 2410); type: functional; details: human respiratory syncytial virus
[17] = inhibitors of intracellular T. cruzi replication, confirmation, NIH3T3 host cells, beta-gal luminescence (AID 2044); type: functional, cell-based;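 note: intracellular parasites grown in NIH/3T3 mouse fibroblasts as host cells; luminescent beta-galactosidase reporter signal from transgenic T. cruzi replicating inside host cells; inhibitors lower the luminescence signal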
BJ [18] = assay: cytotoxicity toward BJ-TERT fibroblasts, dose response, cell-based, RAS-independent, luminescence (AID 1933); type: functional; details: Homo sapiens
[19] = molecular target: T3, Microphthalmia-associated transcription factor (Homo sapiens, UniProt O75030); assay: TRPM1 promoter luciferase signal decrease, dose response, MITF inhibitor project, cell-based, SK-MEL-5, cherry-picked, set 3 (AID 493073); type: functional
T3 sequence (O75030 whole entry): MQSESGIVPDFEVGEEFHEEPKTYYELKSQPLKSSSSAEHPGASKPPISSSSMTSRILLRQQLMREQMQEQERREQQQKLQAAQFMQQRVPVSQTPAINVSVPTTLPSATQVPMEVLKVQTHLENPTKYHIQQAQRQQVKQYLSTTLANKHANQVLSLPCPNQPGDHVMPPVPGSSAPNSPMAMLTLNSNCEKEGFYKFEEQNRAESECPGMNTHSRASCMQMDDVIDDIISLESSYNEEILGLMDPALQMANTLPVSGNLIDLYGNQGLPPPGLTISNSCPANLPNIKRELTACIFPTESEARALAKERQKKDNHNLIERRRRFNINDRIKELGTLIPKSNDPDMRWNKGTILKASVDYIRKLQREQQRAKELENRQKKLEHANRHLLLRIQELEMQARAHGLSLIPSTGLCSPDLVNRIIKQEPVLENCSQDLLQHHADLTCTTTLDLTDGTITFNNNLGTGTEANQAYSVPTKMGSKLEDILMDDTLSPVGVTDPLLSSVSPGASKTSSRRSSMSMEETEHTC

BJ [20] = assay: cells; type: functional, cell-based; details: Homo sapiens
BJ [21] = assay: cytotoxicity toward BJ-TERT-LT-ST fibroblasts, dose response, cell-based, RAS-independent, luminescence (AID 1935); type: functional; details: Homo sapiens;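 note: BJ fibroblasts immortalized with TERT plus LT and ST oncogenes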
[22] = cytotoxicity toward DRD oncogenic fibroblasts, dose response, cell-based, non-viral oncogenic, luminescence (AID 1934); type: functional; details: Homo sapiens

Chain of Beta-2 adrenergic receptor (P07550 whole entry): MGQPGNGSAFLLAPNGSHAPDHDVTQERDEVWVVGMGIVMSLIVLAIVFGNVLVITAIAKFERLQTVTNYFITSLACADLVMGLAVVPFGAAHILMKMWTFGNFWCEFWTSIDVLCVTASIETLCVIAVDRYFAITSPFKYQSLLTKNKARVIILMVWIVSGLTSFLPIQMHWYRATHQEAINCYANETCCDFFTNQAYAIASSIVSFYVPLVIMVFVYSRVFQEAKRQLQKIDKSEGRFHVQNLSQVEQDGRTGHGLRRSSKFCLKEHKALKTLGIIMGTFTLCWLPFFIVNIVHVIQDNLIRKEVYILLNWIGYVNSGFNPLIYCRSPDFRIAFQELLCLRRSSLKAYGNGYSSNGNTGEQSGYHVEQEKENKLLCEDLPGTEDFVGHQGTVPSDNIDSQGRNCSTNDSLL
Chain of FAD-linked sulfhydryl oxidase ALR (P55789 whole entry, the tested form may be a part): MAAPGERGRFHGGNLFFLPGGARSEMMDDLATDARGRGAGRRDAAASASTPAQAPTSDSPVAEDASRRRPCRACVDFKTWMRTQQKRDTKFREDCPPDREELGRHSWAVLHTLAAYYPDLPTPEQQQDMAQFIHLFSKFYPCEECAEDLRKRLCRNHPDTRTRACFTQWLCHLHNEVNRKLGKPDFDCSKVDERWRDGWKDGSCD
Chain of Eukaryotic translation initiation factor 4E (P63073 whole entry): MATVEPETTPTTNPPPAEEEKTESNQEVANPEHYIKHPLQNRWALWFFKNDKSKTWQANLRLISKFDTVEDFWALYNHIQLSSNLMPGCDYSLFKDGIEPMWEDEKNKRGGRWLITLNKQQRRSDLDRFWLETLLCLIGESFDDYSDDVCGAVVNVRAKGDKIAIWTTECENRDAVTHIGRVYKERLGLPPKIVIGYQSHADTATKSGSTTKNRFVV

Clc1cccc(N/N=C(\Cc2nc3ccccc3[nH]2)c2ccccc2)c1
IC50 [1]: 62.2 µM (inactive) | IC50 [2]: 4.59 µM (active) | IC50 [3]: 3.09 µM (active)

O=C(c1ccccc1)c1ccc2c(c1)N=C1CCCC(O)=C1C1c3ccccc3C(=O)N21 (stereo not given)
CC50 [4]: 28.9 µM (active)

CCCc1ccc(OCc2nc(-c3ccc(NC(=O)c4cccs4)cc3)no2)cc1
AC50 (HeLa): 49.1 µM (active) | EC50 [5]: 0.539 µM (active)

CCCN(CCC)CCCNC(=O)c1cc2cc3ccc(Cl)cc3nc2o1
CC50 (Vero [6]): > 100 µM (active)

O=C1CCCN1CCCNc1ncnc2c1[nH]c1ccc(Cl)cc12
AC50 [7]: 0.943 µM (active) | IC50 [1]: 83.3 µM (inactive) | IC50 [2]: 8.28 µM (active) | IC50 [3]: 4.36 µM (active)

CCc1ccc(Nc2nnc(SCC(=O)NC(=O)CN3CCCC3=O)s2)cc1
IC50 [8]: 15 µM (active)

Cc1ccc(NC(=O)CN2C(=O)CN=C(c3ccccc3)c3cc(Cl)ccc32)cc1
IC50 [1]: 6.39 µM (active) | IC50 [2]: 6.78 µM (active) | IC50 [3]: 2.82 µM (active)

C[C@H]1CN([C@@H](C)CO)C(=O)Cc2cc(NS(=O)(=O)c3ccc(Cl)cc3)ccc2O[C@@H]1CN(C)Cc1ccccc1
AC50 [9]: 31.5 µM (active) | AC50 [10]: 13.1 µM (active) | AC50 [11]: 16.9 µM (active) | AC50 [12]: 38.7 µM (active) | AC50 [13]: 29.6 µM (active)

Cc1ccc(/C=C/C(O)=C2/C(=O)N(C)C3(C)CC2c2ccccc2O3)cc1 (stereo not given)
CC50 (Vero [6]): 41 µM (active) | IC50 [14]: > 64 µM (inactive) | CC50 (Vero [15]): 15.4 µM (active)

O=C(COC(=O)c1ccccc1C(=O)c1ccc(Cl)c([N+](=O)[O-])c1)NC1CC1
CC50 [16]: 10.2 µM (active) | AC50 [9]: 11.8 µM (active) | AC50 [10]: 7.05 µM (active) | EC50 [17]: 3.79 µM (active) | AC50 [12]: 15.4 µM (active) | EC50 (BJ [18]): 5.11 µM (active) | AC50 [19]: 8.92 µM (active) | EC50 (BJ [20]): 6.82 µM (inconclusive) | EC50 (BJ [21]): 92.6 µM (inconclusive) | EC50 [22]: 10.1 µM (inconclusive) | EC50 [5]: 13.3 µM (inactive)

O=C(CCN1C(=O)/C(=C/c2ccccc2Cl)SC1=S)N1CCOCC1
CC50 (Vero [6]): 67.3 µM (active)
